According to patent US8389247B2, “Physiogenomic method for predicting diabetes and metabolic syndromes induced by psychotropic drugs” (priority 2006, dated 2013):

Key:
[1] = Outcome variables of patients on each psychotropic drug broken down by demographic factors (Covariates tables); type: in vivo, human
From the text: Various SNPs associated with, for example, the observation of various parameters of metabolic syndromes in patients on psychotropic drugs were screened. The endpoints analyzed were the blood levels of LDL, HDL, and glucose; blood pressure; body mass index; waist circumference; and metabolic syndromes index. The physiogenomic model was developed using the following procedure: 1) Establish a covariate model using only the demographic and clinical variables, 2) Screen for associated genetic markers by testing each SNP against the unexplained residual of the covariate model, and 3) Establish a revised model incorporating the significant associations from the SNP screen.

[2] = cited from earlier work

With `Cc1cc2c(s1)Nc1ccccc1N=C2N1CCN(C)CC1` [olanzapine] the “BM (body mass)” value ([1]; Age 20-30) was 87.06, the “Glucose (blood glucose level)” value ([1]; Age 20-30) was 88.65 and the “HDL (HDL cholesterol level)” value ([1]; Age 20-30) was 48.55. The “LDL (LDL cholesterol level)” value ([1]; Age 20-30) was 104.10, the “Log (TG) (triglyceride level)” value ([1]; Age 20-30) was 5.086 and the “TC (total cholesterol level)” value ([1]; Age 20-30) was 189.00. The “Waist (waist circumference)” value ([1]; Age 20-30) was 99.18, the “dBP (diastolic blood pressure)” value ([1]; Age 20-30) was 75.15 and the “sBP (systolic blood pressure)” value ([1]; Age 20-30) was 118.20. For the same compound, the “BM (body mass)” value ([1]; Age 30-40) was 83.17, the “Glucose (blood glucose level)” value ([1]; Age 30-40) was 92.29 and the “HDL (HDL cholesterol level)” value ([1]; Age 30-40) was 47.68. The “LDL (LDL cholesterol level)” value ([1]; Age 30-40) was 103.73, the “Log (TG) (triglyceride level)” value ([1]; Age 30-40) was 5.168 and the “TC (total cholesterol level)” value ([1]; Age 30-40) was 189.82. For the same compound, the “Waist (waist circumference)” value ([1]; Age 30-40) was 97.82, the “dBP (diastolic blood pressure)” value ([1]; Age 30-40) was 74.14 and the “sBP (systolic blood pressure)” value ([1]; Age 30-40) was 117.32. The “BM (body mass)” value ([1]; Age 40-50) was 79.34, the “Glucose (blood glucose level)” value ([1]; Age 40-50) was 92.47 and the “HDL (HDL cholesterol level)” value ([1]; Age 40-50) was 52.40. For the same compound, the “LDL (LDL cholesterol level)” value ([1]; Age 40-50) was 107.00, the “Log (TG) (triglyceride level)” value ([1]; Age 40-50) was 4.968 and the “TC (total cholesterol level)” value ([1]; Age 40-50) was 202.00. The “Waist (waist circumference)” value ([1]; Age 40-50) was 98.32, the “dBP (diastolic blood pressure)” value ([1]; Age 40-50) was 78.10 and the “sBP (systolic blood pressure)” value ([1]; Age 40-50) was 119.10. The “BM (body mass)” value ([1]; Age 50-60) was 95.73, the “Glucose (blood glucose level)” value ([1]; Age 50-60) was 86.67 and the “HDL (HDL cholesterol level)” value ([1]; Age 50-60) was 49.67. The “LDL (LDL cholesterol level)” value ([1]; Age 50-60) was 104.00, the “Log (TG) (triglyceride level)” value ([1]; Age 50-60) was 5.373 and the “TC (total cholesterol level)” value ([1]; Age 50-60) was 204.67. The “Waist (waist circumference)” value ([1]; Age 50-60) was 105.80, the “dBP (diastolic blood pressure)” value ([1]; Age 50-60) was 87.00 and the “sBP (systolic blood pressure)” value ([1]; Age 50-60) was 136.33. For the same compound, the “BM (body mass)” value ([1]; Age 70-80) was 44.40, the “Glucose (blood glucose level)” value ([1]; Age 70-80) was 92.00 and the “HDL (HDL cholesterol level)” value ([1]; Age 70-80) was 68.00. The “LDL (LDL cholesterol level)” value ([1]; Age 70-80) was 94.00, the “Log (TG) (triglyceride level)” value ([1]; Age 70-80) was 4.159 and the “TC (total cholesterol level)” value ([1]; Age 70-80) was 174.0. For the same compound, the “Waist (waist circumference)” value ([1]; Age 70-80) was 65.00, the “dBP (diastolic blood pressure)” value ([1]; Age 70-80) was 66.00 and the “sBP (systolic blood pressure)” value ([1]; Age 70-80) was 100.0. The “BM (body mass)” value ([1]; Age <20) was 65.00, the “Glucose (blood glucose level)” value ([1]; Age <20) was 109.00 and the “HDL (HDL cholesterol level)” value ([1]; Age <20) was 28.00. The “LDL (LDL cholesterol level)” value ([1]; Age <20) was 68.00, the “Log (TG) (triglyceride level)” value ([1]; Age <20) was 4.787 and the “TC (total cholesterol level)” value ([1]; Age <20) was 120.00. For the same compound, the “Waist (waist circumference)” value ([1]; Age <20) was 96.00, the “dBP (diastolic blood pressure)” value ([1]; Age <20) was 77.00 and the “sBP (systolic blood pressure)” value ([1]; Age <20) was 109.00. The “BM (body mass)” value ([1]; All patients on the drug) was 82.90, the “Glucose (blood glucose level)” value ([1]; All patients on the drug) was 91.22 and the “HDL (HDL cholesterol level)” value ([1]; All patients on the drug) was 49.45. The “LDL (LDL cholesterol level)” value ([1]; All patients on the drug) was 104.11, the “Log (TG) (triglyceride level)” value ([1]; All patients on the drug) was 5.072 and the “TC (total cholesterol level)” value ([1]; All patients on the drug) was 192.60. For the same compound, the “Waist (waist circumference)” value ([1]; All patients on the drug) was 98.21, the “dBP (diastolic blood pressure)” value ([1]; All patients on the drug) was 76.12 and the “sBP (systolic blood pressure)” value ([1]; All patients on the drug) was 118.58. The “BM (body mass)” value ([1]; Gender female) was 82.39, the “Glucose (blood glucose level)” value ([1]; Gender female) was 97.53 and the “HDL (HDL cholesterol level)” value ([1]; Gender female) was 51.89. For the same compound, the “LDL (LDL cholesterol level)” value ([1]; Gender female) was 118.94, the “Log (TG) (triglyceride level)” value ([1]; Gender female) was 4.985 and the “TC (total cholesterol level)” value ([1]; Gender female) was 212.16. For the same compound, the “Waist (waist circumference)” value ([1]; Gender female) was 100.74, the “dBP (diastolic blood pressure)” value ([1]; Gender female) was 75.84 and the “sBP (systolic blood pressure)” value ([1]; Gender female) was 116.79. The “BM (body mass)” value ([1]; Gender male) was 83.10, the “Glucose (blood glucose level)” value ([1]; Gender male) was 88.98 and the “HDL (HDL cholesterol level)” value ([1]; Gender male) was 48.48. For the same compound, the “LDL (LDL cholesterol level)” value ([1]; Gender male) was 98.54, the “Log (TG) (triglyceride level)” value ([1]; Gender male) was 5.107 and the “TC (total cholesterol level)” value ([1]; Gender male) was 184.85. The “Waist (waist circumference)” value ([1]; Gender male) was 97.21, the “dBP (diastolic blood pressure)” value ([1]; Gender male) was 76.23 and the “sBP (systolic blood pressure)” value ([1]; Gender male) was 119.29. For the same compound, the “BM (body mass)” value ([1]; Heritage AA) was 87.38, the “Glucose (blood glucose level)” value ([1]; Heritage AA) was 98.31 and the “HDL (HDL cholesterol level)” value ([1]; Heritage AA) was 54.00. For the same compound, the “LDL (LDL cholesterol level)” value ([1]; Heritage AA) was 109.14, the “Log (TG) (triglyceride level)” value ([1]; Heritage AA) was 5.060 and the “TC (total cholesterol level)” value ([1]; Heritage AA) was 197.57. For the same compound, the “Waist (waist circumference)” value ([1]; Heritage AA) was 96.82, the “dBP (diastolic blood pressure)” value ([1]; Heritage AA) was 77.00 and the “sBP (systolic blood pressure)” value ([1]; Heritage AA) was 119.79. The “BM (body mass)” value ([1]; Heritage Cauc.) was 81.98, the “Glucose (blood glucose level)” value ([1]; Heritage Cauc.) was 89.24 and the “HDL (HDL cholesterol level)” value ([1]; Heritage Cauc.) was 48.16. For the same compound, the “LDL (LDL cholesterol level)” value ([1]; Heritage Cauc.) was 103.53, the “Log (TG) (triglyceride level)” value ([1]; Heritage Cauc.) was 5.115 and the “TC (total cholesterol level)” value ([1]; Heritage Cauc.) was 193.30. The “Waist (waist circumference)” value ([1]; Heritage Cauc.) was 98.17, the “dBP (diastolic blood pressure)” value ([1]; Heritage Cauc.) was 75.48 and the “sBP (systolic blood pressure)” value ([1]; Heritage Cauc.) was 118.38. The “BM (body mass)” value ([1]; Heritage Hisp.) was 110.91, the “Glucose (blood glucose level)” value ([1]; Heritage Hisp.) was 91.00 and the “HDL (HDL cholesterol level)” value ([1]; Heritage Hisp.) was 47.00. For the same compound, the “LDL (LDL cholesterol level)” value ([1]; Heritage Hisp.) was 147.00, the “Log (TG) (triglyceride level)” value ([1]; Heritage Hisp.) was 4.700 and the “TC (total cholesterol level)” value ([1]; Heritage Hisp.) was 216.00. The “Waist (waist circumference)” value ([1]; Heritage Hisp.) was 144.00, the “dBP (diastolic blood pressure)” value ([1]; Heritage Hisp.) was 91.00 and the “sBP (systolic blood pressure)” value ([1]; Heritage Hisp.) was 132.00. The “BM (body mass)” value ([1]; Heritage Other) was 60.45, the “Glucose (blood glucose level)” value ([1]; Heritage Other) was 93.50 and the “HDL (HDL cholesterol level)” value ([1]; Heritage Other) was 51.00. The “LDL (LDL cholesterol level)” value ([1]; Heritage Other) was 61.50, the “Log (TG) (triglyceride level)” value ([1]; Heritage Other) was 4.263 and the “TC (total cholesterol level)” value ([1]; Heritage Other) was 128.50. The “Waist (waist circumference)” value ([1]; Heritage Other) was 86.00, the “dBP (diastolic blood pressure)” value ([1]; Heritage Other) was 78.50 and the “sBP (systolic blood pressure)” value ([1]; Heritage Other) was 108.50. It also gave a BM ([1]; patients on the named drug) of 82.90, a BMI ([1]; patients on the named drug) of 27.12 and a Glucose ([1]; patients on the named drug) of 91.22. For the same compound, the HDL ([1]; patients on the named drug) was 49.45, the LDL ([1]; patients on the named drug) was 104.11 and the “Log (TG)” value ([1]; patients on the named drug) was 5.072. It also gave an MSI ([1]; patients on the named drug) of −0.1290, a TC ([1]; patients on the named drug) of 192.60 and a Waist ([1]; patients on the named drug) of 98.21. For the same compound, the dBP ([1]; patients on the named drug) was 76.12, the sBP ([1]; patients on the named drug) was 118.58 and the “treated patients with induced weight gain, diabetes and other metabolic derangements” value [2] was 50%.
